US20110300246A1, “Herbal Extracts for Treatment of Diabetic Complications and Oxidative Stress” (priority 2010, published 2011)

Tests used:
[1] = system: bovine serum albumin (BSA)-AGEs formation; assay: Glucose and methylglyoxal induced BSA-AGEs formation in vitro (fluorescence); assay type: biochemical; settings: BSA + 2 mM methylglyoxal + 200 mM glucose, 37° C., 7 days
Method: Glucose and Methylglyoxal induced bovine serum albumin (BSA)-AGEs formation is used to test the inhibitory effects of the inventive single herbal extract and mixed herbal extracts on the formation of AGEs in vitro.
Methods: As a protein source, BSA (Sigma-Aldrich, St. Louis, Mo., USA) was dissolved in 50 mM phosphate buffer (pH 7.4) to a concentration of 10 mg/ml. As a sugar source, a mixture of 2 mM methylglyoxal and 200 mM glucose (sigma-Aldrich, St. Louis, Mo., USA) was used. This sugar mixture was added to the prepared BSA solution for use in tests. […] Aminoguanidine (AG), a positive control drug, was tested in the same manner except that AG was dissolved in distilled water. As a negative control group, a culture consisting of BSA, the sugar mixture and 10% Tween80 was cultured. As blanks to the control and test groups, the materials for the test group and the materials for the control group were used after preparation without incubation. Five samples for each group were used to reduce errors to the lowest possible extent. After 7 days incubation, the amounts of AGEs in test samples were determined by measuring the fluorescence at an emission wavelength of 440 nm and an excitation wavelength at 370 nm using a fluorescence Spectrophotometer. The inhibition (%) of the formation of AGEs was calculated according to the following equation:
Inhibition (%) of production=100−[(fluorescent intensity of test group−fluorescent intensity of blank to test group)/(fluorescent intensity of control group−fluorescent intensity of blank to control group)]×100.

STZ-diabetic rats [2] = assay: Body weight gain and general well-being in STZ-diabetic rats, 12 weeks treatment; assay type: in vivo, rat
Method: (§1) Male Sprague-Dawley male rats, weighing 200-250 g, aged 8-10 weeks, were used. Diabetes was induced by administration of streptozotocin (STZ, Sigma-Aldrich, USA) in 0.1 mol/L sodium citrate (pH 4.5) at a dose of 55 mg/kg intraperitoneally. After 48 hours injection, blood glucose levels of the animals were examined using glucose meter. The induction of diabetes was confirmed when the blood glucose level was greater than 300 mg/dl. Animals were maintained in diabetic conditions for 2 weeks without any treatment and blood glucose was determined every week to ensure the subsistence of diabetes. Animals with uncertain blood glucose levels or blood glucose exceeding 600 mg/dl were excluded from the study.
(§2) HEM was suspended in 1% carboxymethylcellulose (CMC) before use. Aminogunidine was dissolved in water first and then added into 1% CMC before use. […] The diabetes-induced and the normal control groups consisted of 8 animals of each. The initial body weights and blood glucose levels of the diabetic animals were similar among the three groups. […] The normal control group and the diabetic control group were administered with equivalent volume of CMC daily for 12 weeks. […]
The general behavioral status of the animals (i.e. locomotor activity, alertness to environmental changes) was observed every day, and the body weight and food intake were measured weekly.

[3] = system: STZ-induced diabetic rats; assay: Immunohistochemical staining for insulin in pancreatic islets of STZ-diabetic rats; assay type: in vivo, rat; settings: 12 weeks treatment, FIG. 2
Method: as §1
as §2, with “weeks. The standard rat diet and water were available ad libitum throughout the entire treatment period.” for “weeks.”

[4] = system: STZ-induced diabetic rats; assay: AGE-fluorescence in the pancreas of STZ-diabetic rats; assay type: in vivo, rat; settings: 12 weeks treatment, FIG. 3
Method: as §1, with “Animals with uncertain blood glucose levels or blood glucose exceeding 600 mg/dl were excluded from the study.” left out
Minced pancreatic tissue was delipidated with chloroform and methanol (2:1,v/v) overnight. […] The amounts of AGEs in these alkali-soluble samples were determined by measuring the fluorescence at an emission wavelength of 440 nm and an excitation wavelength at 370 nm using a fluorescence Spectrophotometer. A native bovine serum albumin (BSA) preparation (1 mg/ml of 0.1 N NaOH) was used as a standard, and its fluorescence intensity was defined as one arbitrary unit (AU). The fluorescence values of samples were measured at a protein concentration of 1 mg/ml and expressed in arbitrary unit (AU) compared with a native BSA preparation. Sample protein concentrations were determined using Bradford method.

STZ-diabetic rats [5] = assay: Fluorescent AGEs and CML-AGE in the descending aorta of STZ-diabetic rats; assay type: in vivo, rat; settings: 12 weeks, FIG. 6 and FIG. 7
Method: as §1
as §2, with “weeks. The standard rat diet and water were available ad libitum throughout the entire treatment period.” for “weeks.”

STZ-diabetic rats [6] = assay: 24-hr urinary albumin excretion in STZ-diabetic rats; assay type: in vivo, rat; settings: 12 weeks, P<0.01, FIG. 8
Method: as §1
HEM was suspended in 1% carboxymethylcellulose (CMC) before use. Aminogunidine was dissolved in water first and then added into 1% CMC before use. […] The diabetes-induced and the normal control groups consisted of 8 animals of each. The initial body weights and blood glucose levels of the diabetic animals were similar among the three groups. […]
Development of albuminuria is a cardinal manifestation of glomerular injury and a pathological factor in the progression of renal dysfunction. […] The levels of urinary albumin were quantified using a commercial assay kit (Guangzhou WhiJa Technology, Inc. Guangzhou, China), according to the manufacturer's instructions.

STZ-diabetic rats [7] = assay: AGE levels in the kidney cortex of STZ-diabetic rats; assay type: in vivo, rat; settings: 12 weeks, mean ± SD, n=8
Method: as §1
as §2, with “weeks. The standard rat diet and water were available ad libitum throughout the entire treatment period.” for “weeks.”

STZ-diabetic rats [8] = assay: Renal oxidative stress (SOD activity, MDA) in STZ-diabetic rats; assay type: in vivo, rat; settings: renal cortical tissue, 12 weeks, mean ± SD, n=8
Method: as §1
HEM was suspended in 1% carboxymethylcellulose (CMC) before use. Aminogunidine was dissolved in water first and then added into 1% CMC before use. […] The diabetes-induced and the normal control groups consisted of 8 animals of each. […]
For measurements of SOD activity and MDA contents, the renal cortical tissues were homogenized in a buffer solution (0.25 M sucrose, 0.5 mM EDTA, 50 mM HEPES, protease inhibitors) on ice and centrifuged at 4° C. at 12,000 rpm for 20 min. The supernatants were collected and analyzed with corresponding assay kits (Nanjing Jiancheng Shengwu Yanjiu Suo, Nanjing, China) according to the manufacturer's instructions, […]

For `N=C(N)NN` [Aminoguanidine, aminoguanidine], the “Inhibition (%) of the formation of AGEs” value ([1]; 12.5 mcg/ml) was 19.6 ± 3.6%, the “Inhibition (%) of the formation of AGEs” value ([1]; 25 mcg/ml) was 31.7 ± 3.5% and the “Inhibition (%) of the formation of AGEs” value ([1]; 50 mcg/ml) was 44.8 ± 2.9%. For the same compound, the “Inhibition (%) of the formation of AGEs” value ([1]; 100 mcg/ml) was 69.9 ± 3.5%, the “body weight increase by the end of the experiment” value (STZ-diabetic rats [2]; 12 weeks oral treatment) was 44.0 g and the “Body weight (g) (after treatment)” value (STZ-diabetic rats [2]; oral gavage daily 12 weeks, HEM 500 mg/kg, AG 50 mg/kg, mean ± SD, n=8) was 258.6 ± 8.1 g. For the same compound, the “insulin immunostaining in the pancreatic islets” value [3] was “no evident effect”, the “pancreatic level of AGEs (fluorescence)” value [4] was “effectively lowered” and the “accumulation of AGEs (fluorescent AGEs and CML-AGE) in the descending aorta” value (STZ-diabetic rats [5]) was “effectively reduced”. The “reduction of 24-hr urinary albumin excretion compared with STZ-diabetic control group” value (STZ-diabetic rats [6]) was 37.3%, the “AGE-fluorescence in the kidney cortex” value (STZ-diabetic rats [7]) was 3.4 ± 0.5 AU/mg protein and the “CML-AGE in the kidney cortex” value (STZ-diabetic rats [7]) was 262.8 ± 55.4 ng/mg protein. The “Renal MDA” value (STZ-diabetic rats [8]) was 8.82 ± 1.92 μM/mg protein and the “Renal SOD activity” value (STZ-diabetic rats [8]) was 1.78 ± 0.42 Unit/mg protein.
